ChEMBL document CHEMBL5050850, “Compositions and methods of using the same for treatment of neurodegenerative and mitochondrial disease” (2020)
pEC50: −log10 of the molar value. Converted amounts (≈) assume the structure as drawn. The source made the active and inactive calls. The rule behind the calls is not given here.

Columns and labels:
[1] = Induction of mitophagy in human HeLa MKYP cells treated at 6.3 uM with FCCP/oligomycin for 6 hrs and measured by FACS analysis relative to control; format: functional
[2] = test system: HeLa; experiment: Cytotoxicity against human HeLa MKYP cells assessed as percentage of DAPI-positive cells at 50 uM and measured by DAPI staining method; format: toxicity, cell-based
[3] = Induction of mitophagy in human HeLa MKYP cells treated with FCCP/oligomycin for 6 hrs and measured by FACS analysis; format: functional, cell-based
[4] = test system: HeLa; experiment: Cytotoxicity against human HeLa MKYP cells assessed as cell death at 25 uM treated with FCCP/oliogmycin and measured DAPI staining method assay relative to control; format: toxicity, cell-based
[5] = test system: HeLa; experiment: Cytotoxicity against human HeLa MKYP cells assessed as cell death at 25 uM and measured DAPI staining method assay relative to control; format: toxicity, cell-based
[6] = Ratio of highest compound concentration with no observable mitotoxicity to EC50 of compound to induce mitophagy in human HeLa MKYP cells; format: functional
[7] = Solubility of compound in PBS; format: physicochemical
[8] = target: Serine/threonine-protein kinase PINK1, mitochondrial (Homo sapiens) (UniProt Q9BXM7); experiment: Activation of PINK1 in human HeLa cells stably expressing YFP parkin assessed as reduction in dOTC protein accumulation and measured by ornithine carbamoyltransferase (DOTC) assay relative to control; format: cell-based; details: filed as activator
[9] = target: Serine/threonine-protein kinase PINK1, mitochondrial (Homo sapiens) (UniProt Q9BXM7); experiment: Activation of PINK1 in human HeLa MKYP cells expressing PINK1 treated with FCCP/oilgomycin assessed as increase in pS65 Ub and measured by ELISA assay; format: cell-based; details: filed as activator
[10] = target: Serine/threonine-protein kinase PINK1, mitochondrial (Homo sapiens) (UniProt Q9BXM7); experiment: Activation of PINK1 in human HeLa MKYP PINK1-knock out cells treated with FCCP/oilgomycin assessed as increase in pS65 Ub and measured by ELISA assay; format: cell-based
[11] = target: Serine/threonine-protein kinase PINK1, mitochondrial (Homo sapiens) (UniProt Q9BXM7); experiment: Activation of PINK1 in human HeLa MKYP cells expressing PINK1 treated with FCCP/oilgomycin assessed as increase in parkin recruitment and measured by ELISA assay; format: cell-based; details: filed as activator
[12] = target: Serine/threonine-protein kinase PINK1, mitochondrial (Homo sapiens) (UniProt Q9BXM7); experiment: Activation of PINK1 in human HeLa MKYP PINK1-knock out cells treated with FCCP/oilgomycin assessed as increase in parkin recruitment and measured by ELISA assay; format: cell-based
[13] = test system: HeLa; experiment: Induction of mitophagy in human HeLa MKYP cells expressing wild-type PNIK1 treated with FCCP/oligomycin for 6 hrs and measured by FACS analysis; format: functional, cell-based
[14] = test system: HeLa; experiment: Induction of mitophagy in human HeLa MKYP PINK1-knockout cells treated with FCCP/oligomycin for 6 hrs and measured by FACS analysis; format: functional, cell-based
[15] = target: Serine/threonine-protein kinase PINK1, mitochondrial (Homo sapiens) (UniProt Q9BXM7); experiment: Activation of PINK1 in human iPSC derived neurons at 3.1 to 6.2 uM assessed as reduction in pS129 alpha-synuclein; format: cell-based; details: Neuron, filed as activator, dose 3.1-6.2 µM
[16] = target: Serine/threonine-protein kinase PINK1, mitochondrial (Homo sapiens) (UniProt Q9BXM7); experiment: Activation of PINK1 in human HeLa MKYP PINK1-knock out cells at 3.125 to 6.25 uM assessed as reduction in pS129 alpha-synuclein; format: cell-based; details: dose 3.125-6.25 µM
[17] = test system: Mus musculus; experiment: Protection against preformed alpha-synuclein amyloid fibril (PFF) in C57BL/6 mouse model assessed as decrease in C-terminal truncation of alpha-synuclein in ipsilateral striatum at 5 to 50 mg/kg, po administered daily for 28 days; format: functional, organism-based; details: dose 5-50 mg/kg, time 28.0 day
[18] = test system: Mus musculus; experiment: Protection against preformed alpha-synuclein amyloid fibril (PFF) in C57BL/6 mouse model assessed as decrease in pS129 monomer of alpha-synuclein in ipsilateral striatum at 5 to 50 mg/kg, po administered daily for 28 days; format: functional, organism-based; details: dose 5-50 mg/kg, time 28.0 day
[19] = test system: Mus musculus; experiment: Protection against preformed alpha-synuclein amyloid fibril (PFF) in C57BL/6 mouse model assessed as decrease in total monomer of alpha-synuclein in ipsilateral striatum at 5 to 50 mg/kg, po administered daily for 28 days; format: functional, organism-based; details: dose 5-50 mg/kg, time 28.0 day
[20] = test system: Mus musculus; experiment: Protection against preformed alpha-synuclein amyloid fibril (PFF) in C57BL/6 mouse model assessed as decrease in all species of alpha-synuclein in ipsilateral striatum at 5 to 50 mg/kg, po administered daily for 28 days; format: functional, organism-based; details: dose 5-50 mg/kg, time 28.0 day
[21] = test system: Mus musculus; experiment: Protection against preformed alpha-synuclein amyloid fibril (PFF) in C57BL/6 mouse model assessed as decrease in all species of alpha-synuclein in contralateral striatum at 5 to 50 mg/kg, po administered daily for 28 days; format: functional, organism-based; details: dose 5-50 mg/kg, time 28.0 day
[22] = test system: Mus musculus; experiment: Protection against preformed alpha-synuclein amyloid fibril (PFF) in C57BL/6 mouse model assessed as decrease in all species of alpha-synuclein in ventral midbrain at 5 to 50 mg/kg, po administered daily for 28 days; format: functional, organism-based; details: dose 5-50 mg/kg, time 28.0 day
[23] = test system: Mus musculus; experiment: Protection against cisplatin-induced mitochondrial dysfunction in mouse assessed as decrease in GDF15 expression at 20 to 50 mg/kg, po administered daily; format: functional, organism-based; details: dose 20-50 mg/kg

Serine/threonine-protein kinase PINK1, mitochondrial (Homo sapiens), sequence (Q9BXM7 whole entry, the tested form may be a part): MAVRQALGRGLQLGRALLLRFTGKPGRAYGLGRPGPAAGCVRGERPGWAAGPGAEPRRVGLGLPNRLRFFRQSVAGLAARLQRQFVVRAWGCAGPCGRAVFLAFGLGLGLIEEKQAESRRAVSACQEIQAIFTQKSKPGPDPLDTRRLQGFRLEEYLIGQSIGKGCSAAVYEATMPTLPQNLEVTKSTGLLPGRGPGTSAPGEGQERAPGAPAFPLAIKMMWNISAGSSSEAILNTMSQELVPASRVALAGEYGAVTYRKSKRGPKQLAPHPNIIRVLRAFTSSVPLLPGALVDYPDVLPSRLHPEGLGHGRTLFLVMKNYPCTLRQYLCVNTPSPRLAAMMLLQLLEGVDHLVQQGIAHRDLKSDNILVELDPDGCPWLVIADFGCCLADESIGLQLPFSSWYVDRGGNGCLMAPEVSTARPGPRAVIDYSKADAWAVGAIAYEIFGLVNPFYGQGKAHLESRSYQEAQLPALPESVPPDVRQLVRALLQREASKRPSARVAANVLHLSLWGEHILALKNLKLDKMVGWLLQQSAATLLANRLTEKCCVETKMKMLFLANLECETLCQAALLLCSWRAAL

Compound | Activity [1] [%] | Activity [2] [%] | pEC50 [3] | Activity [4] [%] | Activity [5] [%] | other results
CC(C)(Nc1ncnc2[nH]c(C(F)(F)F)cc12)c1ccccc1 | 17 | 5.6 |  |  |  | 
FC(F)(F)c1cc2c(NC3COc4ccccc43)ncnc2[nH]1 (centres undefined) | 52.5 | 39.7 |  |  |  | 
OC[C@@H]1CCc2ccccc2[C@H]1Nc1ncnc2[nH]c(C(F)(F)F)cc12 |  | 59.5 | 5.96 | 59.535 | 27 | Ratio [6]: 7.25
Fc1ccc2c(c1)CCCC2Nc1ncnc2[nH]c(C(F)(F)F)cc12 (centres undefined) |  | 30.1 | 5.97 | 30.1 | 3.27 | solubility [7]: 1 µM (≈ 0.35 µg/mL)
FC(F)(F)c1cc2c(NC3CCc4ccccc43)ncnc2[nH]1 (stereo in doubt; 17) |  | 2.3 |  |  |  | Activity ([1]; 6 h, 6.3 µM): 14.8%
CO[C@@H]1CCc2ccccc2[C@H]1Nc1ncnc2[nH]c(C(F)(F)F)cc12 |  | 18.4 | 4.66 | 18.4 | 15.3 | solubility [7]: 1 µM (≈ 0.362 µg/mL)
OC1CCc2ccccc2C1Nc1ncnc2[nH]c(C(F)(F)F)cc12 (centres undefined) |  | 12.8 | < 4.30 | 12.8 | 3.79 | solubility [7]: 1 µM (≈ 0.348 µg/mL)
CC[C@@H]1CCc2ccccc2[C@@H]1Nc1ncnc2[nH]c(C(F)(F)F)cc12 |  | 8.7 | 5.74 | 8.735 | 5.04 | Ratio [6]: 13.8
C[C@@H]1CCc2ccccc2[C@H]1Nc1ncnc2[nH]c(C(F)(F)F)cc12 |  | 23.8 | 5.38 | 23.8 | 17.9 | solubility [7]: 1 µM (≈ 0.346 µg/mL)
FC(F)(F)c1cc2c(NC3(c4ccccc4)CC3)ncnc2[nH]1 | 20.8 | 80.5 |  |  |  | 
CO[C@H]1CCc2ccccc2[C@@H]1Nc1ncnc2[nH]c(C(F)(F)F)cc12 |  | 7.7 | 5.83 | 7.67 | 5.15 | solubility [7]: 1.31 µM (≈ 0.475 µg/mL)
CCCCNc1ncnc2[nH]c(C)cc12 | 43.4 | 15.4 |  |  |  | 
CN1CC[C@H](Nc2ncnc3[nH]c(C(F)(F)F)cc23)c2ccccc21 |  | 59 | 5.88 | 16 | 2.51 | Ratio [6]: 30
CC(Nc1ncnc2[nH]c(C(F)(F)F)cc12)c1ccccc1 (centres undefined) | 88.4 | 2.4 |  |  |  | 
C[C@H]1CCc2ccccc2[C@H]1Nc1ncnc2[nH]c(C(F)(F)F)cc12 |  | 12 | 5.96 | 12 | 6.45 | Ratio [6]: 7.74
FC(F)(F)c1cc2c(N[C@@H]3CCOc4ccccc43)ncnc2[nH]1 |  | 21.1 | 5.20 | 21 | 3.04 | Ratio [6]: 8.85
c1ccc2c(c1)CCC[C@H]2Nc1ncnc2[nH]c(C3CC3)cc12 |  | 16.6 | 6.33 | 14.9 | 9.32 | solubility [7]: 1 µM (≈ 0.304 µg/mL); Ratio [6]: 53.2
N#Cc1cccc2c1CCCC2Nc1ncnc2[nH]c(C(F)(F)F)cc12 (centres undefined) |  | 71.2 | 5.53 | 71.2 | 57.1 | solubility [7]: 1 µM (≈ 0.357 µg/mL); Ratio [6]: 8.39
CCCCNc1ncnc2[nH]c(C(OCC)C(F)(F)F)cc12 (centres undefined) | 17.9 | 15.8 |  |  |  | 
O[C@@H]1Cc2ccccc2[C@@H]1Nc1ncnc2[nH]c(C(F)(F)F)cc12 |  | 35.6 | 5.05 | 35.6 | 5.5 | 

Compound | Activity [1] [%] | Activity [2] [%] | pEC50 [3] | Activity [4] [%] | Activity [5] [%] | other results
Oc1ccc2c(c1)CCC[C@H]2Nc1ncnc2[nH]c(C(F)(F)F)cc12 |  | 11 | 5.36 | 11 | 3.32 | 
CO[C@H]1COc2ccccc2[C@@H]1Nc1ncnc2[nH]c(C(F)(F)F)cc12 |  | 15.9 | 5.40 | 15.865 | 3.66 | 
O[C@H]1Cc2ccccc2[C@@H]1Nc1ncnc2[nH]c(C(F)(F)F)cc12 |  | 14.4 | 4.73 | 14.4 | 2.51 | Ratio [6]: 1.35
O[C@@H]1Cc2ccccc2[C@H]1Nc1ncnc2[nH]c(C(F)(F)F)cc12 |  | 7.6 | 4.82 | 7.59 | 2.35 | Ratio [6]: 1.66
CCCCNc1ncnc2[nH]c(-c3ccnn3C)cc12 | 15 | 94.6 |  |  |  | 
FC(F)(F)c1cc2c(NC3CCCc4ccccc43)ncnc2[nH]1 (stereo in doubt; 16) |  | 4.5 |  |  |  | Activity ([1]; 6 h, 6.3 µM): 10.1%
CCCCNc1ncnc2[nH]c(CC(F)(F)F)cc12 | 13.9 | 24.8 |  |  |  | 
C[C@H]1CCc2ccccc2[C@@H]1Nc1ncnc2[nH]c(C(F)(F)F)cc12 |  | 13.3 | 6.22 | 13.32 | 3.79 | solubility [7]: 1 µM (≈ 0.346 µg/mL); Ratio [6]: 8.69
COc1ccc2c(c1)CCCC2Nc1ncnc2[nH]c(C(F)(F)F)cc12 (centres undefined) | 29.8 | 95.5 |  |  |  | 
OC[C@H]1CCc2ccccc2[C@@H]1Nc1ncnc2[nH]c(C(F)(F)F)cc12 |  | 30.9 | 5.26 | 30.87 | 9.83 | 
CN(C)[C@H]1CCc2ccccc2[C@@H]1Nc1ncnc2[nH]c(C(F)(F)F)cc12 |  | 79.3 | 6.09 | 79.29 | 4.33 | 
FC(F)(F)c1cc2c(NC3CCc4ccccc43)ncnc2[nH]1 (stereo in doubt; 18) |  | 1.7 |  |  |  | Activity ([1]; 6 h, 6.3 µM): 14.3%
CCCCNc1ncnc2[nH]c(C(F)(F)F)cc12 | 42.3 | 4.6 |  |  |  | 
FC(F)(F)c1cc2c(NC3CCCc4ccccc43)ncnc2[nH]1 (stereo in doubt) |  |  |  |  |  | Activity [8]: Active; Activity [9]: Active; Activity [10]: inactive; Activity [11]: Active; Activity [12]: inactive; Activity [13]: Active; Activity [14]: inactive; Activity [15]: Active; Activity [16]: inactive; Activity [17]: Active; Activity [18]: Active; Activity [19]: Active; Activity [20]: Active; Activity [21]: Active; Activity [22]: Active; Activity [23]: Active
O[C@H]1Cc2ccccc2[C@H]1Nc1ncnc2[nH]c(C(F)(F)F)cc12 |  | 21.2 | < 4.30 | 21.2 | 2.75 | 
CCCCNc1ncnc2[nH]c(-c3ccccc3)cc12 | 52 | 90 |  |  |  | 
CCCCNc1ncnc2[nH]c(CC)cc12 | 14 | 93.4 |  |  |  | 
FC(F)(F)c1cc2c(NCc3ccccc3)ncnc2[nH]1 | 35.1 | 50.4 |  |  |  | 
c1ccc2c(c1)OCC[C@H]2Nc1ncnc2[nH]c(C3CC3)cc12 |  | 17.3 | 5.70 | 17.3 | 7.26 | 
